Laboratory results taken from PubChem BioAssay AID248 (DTP/NCI, 2004).
Where “and” joins values, the source holds several entries; their conditions need not be identical. Identical values can stand only once. Inconclusive results and toxic doses are left out. No stated cut-off is given here; in the data, active means T/C of 150% or more; inactive means T/C below 125%.

Test system: L1210 leukemia ip in BDF1 mice, survival T/C
Assay: NCI In Vivo Anticancer Drug Screen. Data for tumor model L1210 Leukemia (intraperitoneal) in B6D2F1 (BDF1) mice
Settings: endpoint: mean survival time, higher = longer survival
How it was run: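 Each compound was tested against a transplantable tumor grown in mice. The endpoint was survival, with treated animals benchmarked against vehicle controls as a simple ratio.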

[1] = dose: 100.0 mg/kg/injection, schedule: Q04DX003 (ip), vehicle: Klucel (hydroxypropylcellulose) (HPC)
[2] = dose: 200.0 mg/kg/injection, schedule: Q04DX003 (ip), vehicle: Klucel (hydroxypropylcellulose) (HPC)
[3] = dose: 400.0 mg/kg/injection, schedule: Q04DX003 (ip), vehicle: Klucel (hydroxypropylcellulose) (HPC)
[4] = dose: 100.0 mg/kg/injection, schedule: Q01DX009 (ip), vehicle: saline
[5] = dose: 200.0 mg/kg/injection, schedule: Q01DX009 (ip), vehicle: saline
[6] = dose: 100.0 mg/kg/injection, schedule: Q01DX001 (ip), vehicle: other
[7] = dose: 200.0 mg/kg/injection, schedule: Q01DX001 (ip), vehicle: other
[8] = dose: 400.0 mg/kg/injection, schedule: Q01DX001 (ip), vehicle: other
[9] = dose: 100.0 mg/kg/injection, schedule: Q04DX003 (ip), vehicle: saline with Tween-80
[10] = dose: 200.0 mg/kg/injection, schedule: Q04DX003 (ip), vehicle: saline with Tween-80
[11] = dose: 400.0 mg/kg/injection, schedule: Q01DX009 (ip), vehicle: saline
[12] = dose: 400.0 mg/kg/injection, schedule: Q04DX003 (ip), vehicle: saline with Tween-80
[13] = dose: 100.0 mg/kg/injection, schedule: Q04DX003 (ip), vehicle: saline
[14] = dose: 200.0 mg/kg/injection, schedule: Q04DX003 (ip), vehicle: saline
[15] = dose: 400.0 mg/kg/injection, schedule: Q04DX003 (ip), vehicle: saline

Measured: T/C

CC(=O)OC1CCC2(C)C(=CC(=O)C3C4CCC(C(C)C)C4CCC32)C1 (stereo not drawn)
inactive: dose: 75.0 mg/kg/injection, schedule: Q01DX009 (sc), vehicle: steriod suspending solution 95 % of control | dose: 75.0 mg/kg/injection, schedule: Q04DX003 (sc), vehicle: steriod suspending solution 94 % of control | dose: 150.0 mg/kg/injection, schedule: Q01DX009 (sc), vehicle: steriod suspending solution 109 % of control | dose: 150.0 mg/kg/injection, schedule: Q04DX003 (sc), vehicle: steriod suspending solution 98 % of control | dose: 300.0 mg/kg/injection, schedule: Q01DX009 (sc), vehicle: steriod suspending solution 108 % of control | dose: 300.0 mg/kg/injection, schedule: Q04DX003 (sc), vehicle: steriod suspending solution 94 % of control

COC(=O)C(O)C(O)C(O)C(O)C(=O)OC (stereo not drawn)
inactive: dose: 50.0 mg/kg/injection, schedule: Q04DX002 (ip), vehicle: saline with Tween-80 101 % of control | dose: 100.0 mg/kg/injection, schedule: Q04DX002 (ip), vehicle: saline with Tween-80 96 % of control | dose: 200.0 mg/kg/injection, schedule: Q04DX002 (ip), vehicle: saline with Tween-80 90 % of control | dose: 400.0 mg/kg/injection, schedule: Q04DX002 (ip), vehicle: saline with Tween-80 93 % of control

Nc1c(Br)cc(Br)cc1Br
inactive: dose: 100.0 mg/kg/injection, schedule: Q01DX009 (ip), vehicle: Klucel (hydroxypropylcellulose) (HPC) 96 % of control | [1] 106 % of control | dose: 200.0 mg/kg/injection, schedule: Q01DX009 (ip), vehicle: Klucel (hydroxypropylcellulose) (HPC) 96 % of control | [2] 92 % of control | dose: 400.0 mg/kg/injection, schedule: Q01DX009 (ip), vehicle: Klucel (hydroxypropylcellulose) (HPC) 98 % of control | [3] 97 % of control

O=C(NCCF)NC1C=CCCC1 (stereo not drawn)
inactive: dose: 75.0 mg/kg/injection, schedule: Q01DX001 (ip), vehicle: other 100 % of control | dose: 150.0 mg/kg/injection, schedule: Q01DX001 (ip), vehicle: other 95 % of control | dose: 300.0 mg/kg/injection, schedule: Q01DX001 (ip), vehicle: other 94 % of control

O=C(Nc1ccc(NC2=NCCN2)cc1)c1ccc(C(=O)Nc2ccc(NC3=NCCN3)cc2)c([N+](=O)[O-])c1
inactive: dose: 1.88 mg/kg/injection, schedule: Q01DX Z (ip), vehicle: saline 92 % of control | dose: 3.75 mg/kg/injection, schedule: Q01DX Z (ip), vehicle: saline 97 % of control | dose: 7.5 mg/kg/injection, schedule: Q01DX Z (ip), vehicle: saline 106 % of control | dose: 7.5 mg/kg/injection, schedule: Q01DX Z (oral), vehicle: saline 94 % of control | dose: 15.0 mg/kg/injection, schedule: Q01DX Z (ip), vehicle: saline 110 % of control and 89 % of control | dose: 15.0 mg/kg/injection, schedule: Q01DX Z (oral), vehicle: saline 95 % of control | dose: 30.0 mg/kg/injection, schedule: Q01DX Z (oral), vehicle: saline 91 % of control | dose: 60.0 mg/kg/injection, schedule: Q01DX Z (oral), vehicle: saline 100 % of control

c1ccc([C@H]2CN3CCSC3=N2)cc1
inactive: dose: 0.15 mg/kg/injection, schedule: Q01DX009 (ip), vehicle: saline 94 % of control | dose: 0.31 mg/kg/injection, schedule: Q01DX009 (ip), vehicle: saline 91 % of control | dose: 0.63 mg/kg/injection, schedule: Q01DX009 (ip), vehicle: saline 105 % of control | dose: 1.25 mg/kg/injection, schedule: Q01DX009 (ip), vehicle: saline 96 % of control | dose: 2.5 mg/kg/injection, schedule: Q01DX009 (ip), vehicle: saline 98 % of control | dose: 5.0 mg/kg/injection, schedule: Q01DX009 (ip), vehicle: saline 109 % of control | dose: 10.0 mg/kg/injection, schedule: Q01DX009 (ip), vehicle: saline 93 % of control | dose: 20.0 mg/kg/injection, schedule: Q01DX009 (ip), vehicle: saline 94 % of control

Cc1ccc(S(=O)(=O)OCC(CO)(COS(=O)(=O)c2ccc(C)cc2)[N+](=O)[O-])cc1
inactive: dose: 50.0 mg/kg/injection, schedule: Q01DX009 (ip), vehicle: saline 104 % of control | [4] 94 % of control | [1] 97 % of control | [5] 96 % of control | [2] 105 % of control

O=c1oc(=O)c2ccccc2c2ccccc12
inactive: [6] 93 % of control | [7] 96 % of control | [8] 107 % of control

O=C(O)C1OC1c1ccccc1 (stereo not drawn)
inactive: [4] 107 % of control | [9] 98 % of control | [5] 109 % of control | [10] 98 % of control | [11] 104 % of control | [12] 100 % of control

CCCCCCC(C)O[Si](C)c1ccc(CC)cc1 (stereo not drawn)
inactive: [9] 99 % of control | [10] 95 % of control | [12] 103 % of control

Cc1ccc(C)c(C[P+](c2ccccc2)(c2ccccc2)c2ccccc2)c1
inactive: dose: 15.0 mg/kg/injection, schedule: Q01DX001 (ip), vehicle: saline 104 % of control

CC(=O)NCCCC1CCCCC1CN (stereo not drawn)
inactive: [13] 104 % of control | [14] 114 % of control | [15] 114 % of control

O=c1c2[nH]cnc2nnn1CCc1ccccc1
inactive: [6] 94 % of control | [7] 93 % of control | [8] 91 % of control

Cc1ccc(S(=O)(=O)n2cc[nH]c2=O)cc1
inactive: dose: 100.0 mg/kg/injection, schedule: Q01DX001 (ip), vehicle: Klucel (hydroxypropylcellulose) (HPC) 100 % of control | dose: 200.0 mg/kg/injection, schedule: Q01DX001 (ip), vehicle: Klucel (hydroxypropylcellulose) (HPC) 100 % of control | dose: 400.0 mg/kg/injection, schedule: Q01DX001 (ip), vehicle: Klucel (hydroxypropylcellulose) (HPC) 105 % of control

O=c1[nH]cnc2c1ncn2Cc1ccc([N+](=O)[O-])cc1
inactive: [6] 96 % of control | [9] 102 % of control | [7] 98 % of control | [10] 96 % of control | [12] 94 % of control

CN(C)c1ccc(Cc2ccc(N(C)C)nc2)cn1
inactive: [1] 110 % of control | [2] 102 % of control | [3] 100 % of control

Cc1ccc(N=NC2C(=O)c3ccccc3C2=O)cc1
inactive: dose: 50.0 mg/kg/injection, schedule: Q01DX001 (ip), vehicle: saline 100 % of control | dose: 100.0 mg/kg/injection, schedule: Q01DX001 (ip), vehicle: saline 100 % of control | dose: 200.0 mg/kg/injection, schedule: Q01DX001 (ip), vehicle: saline 97 % of control | dose: 400.0 mg/kg/injection, schedule: Q01DX001 (ip), vehicle: saline 103 % of control

CCOC(=O)NC(=O)CC
inactive: [4] 100 % of control | [13] 98 % of control | [5] 110 % of control | [14] 98 % of control | [11] 110 % of control | [15] 98 % of control

OCC1OC(n2nc(Cl)c3ccccc32)C(O)C1O (stereo not drawn)
inactive: dose: 50.0 mg/kg/injection, schedule: Q01DX005 (ip), vehicle: other 105 % of control | dose: 100.0 mg/kg/injection, schedule: Q01DX005 (ip), vehicle: other 102 % of control | dose: 200.0 mg/kg/injection, schedule: Q01DX005 (ip), vehicle: other 102 % of control
